Measurements as given in patent US20240092773A1, “DIHYDRO-CYCLOPENTA-ISOQUINOLINE SULFONAMIDES DERIVATIVES” (UCB Biopharma SRL, priority 2019, published 2024).

Target: IgE-Tb binding to soluble IgE receptor FcεR1α (Y131A mutation) (Homo sapiens, UniProt P01854, N146Q/N252Q)
Test: In vitro FRET assay: inhibition of binding of IgE-Tb to receptor FcεR1α-Y131A-AF488
Details: read-out: FRET IC50 range

Chain of IgE-Tb binding to soluble IgE receptor FcεR1α (Y131A mutation) (P01854 whole entry N146Q/N252Q, looked up): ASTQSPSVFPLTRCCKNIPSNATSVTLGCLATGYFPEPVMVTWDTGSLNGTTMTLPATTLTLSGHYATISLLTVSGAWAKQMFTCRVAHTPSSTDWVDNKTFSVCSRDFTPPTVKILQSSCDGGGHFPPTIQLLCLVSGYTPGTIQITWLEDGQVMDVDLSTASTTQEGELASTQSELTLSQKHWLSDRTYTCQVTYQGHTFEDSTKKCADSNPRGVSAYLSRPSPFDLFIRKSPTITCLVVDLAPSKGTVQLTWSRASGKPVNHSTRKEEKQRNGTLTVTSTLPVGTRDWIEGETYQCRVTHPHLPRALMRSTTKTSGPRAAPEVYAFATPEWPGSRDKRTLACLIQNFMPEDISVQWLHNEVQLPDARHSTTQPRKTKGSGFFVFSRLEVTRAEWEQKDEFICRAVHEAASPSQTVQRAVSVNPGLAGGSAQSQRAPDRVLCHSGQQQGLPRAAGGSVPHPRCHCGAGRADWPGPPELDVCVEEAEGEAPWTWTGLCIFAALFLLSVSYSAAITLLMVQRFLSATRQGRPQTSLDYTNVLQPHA

SMILES | IC50 [µM]
CCNc1nncn1C1CCc2c1cc(S(=O)(=O)NCC(C)C)c1cc(C3CC3)ncc21 (single isomer, unassigned) [Example 52, (7R*)-3-cyclopropyl-7-[3-(ethylamino)-1,2,4-triazol-4-yl]-N-(2-methylpropyl)-8,9-dihydro-7H-cyclopenta[h]isoquinoline-5-sulfonamide] | 0.01 to 0.05
CC(C)(F)CNS(=O)(=O)c1cc2c(c3cnc(C4CC4)cc13)CCC2(O)c1cccnc1 (stereo not shown) [Example 10, 3-cyclopropyl-N-(2-fluoro-2-methylpropyl)-7-hydroxy-7-pyridin-3-yl-8,9-dihydrocyclopenta[h]isoquinoline-5-sulfonamide] | 0.1 to 2
Cc1cc(CNC(=O)NC2CCc3cc(S(=O)(=O)NCC(C)C)c4cc(C5CC5)ncc4c32)n(C)n1 (stereo not shown) [Example 46, 1-[3-cyclopropyl-5-(2-methylpropylsulfamoyl)-8,9-dihydro-7H-cyclopenta[h]isoquinolin-9-yl]-3-[(2,5-dimethylpyrazol-3-yl)methyl]urea] | 0.1 to 2
CC(C)CNS(=O)(=O)c1cc2c(c3cnc(C4CC4)cc13)C(Nc1nncn1-c1cccc3c1nnn3C)CC2 (stereo not shown) [Example 2, 3-cyclopropyl-N-isobutyl-9-[[4-(1-methylbenzotriazol-4-yl)-1,2,4-triazol-3-yl]amino]-8,9-dihydro-7H-cyclopenta[h]isoquinoline-5-sulfonamide] | 0.05 to 0.1
CC(C)CNS(=O)(=O)c1cc2c(c3cnc(C4CC4)cc13)C(C)(O)CC2 (stereo not shown) [Example 64, 3-cyclopropyl-9-hydroxy-9-methyl-N-(2-methylpropyl)-7,8-dihydrocyclopenta[h]isoquinoline-5-sulfonamide] | 0.1 to 2
CC(C)CNS(=O)(=O)c1cc2c(c3cnc(C4CC4)cc13)C(Nc1ccc(C(=O)O)nc1)CC2 (stereo not shown) [Example 19, 5-[[3-cyclopropyl-5-(2-methylpropylsulfamoyl)-8,9-dihydro-7H-cyclopenta[h]isoquinolin-9-yl]amino]pyridine-2-carboxylic Acid] | 0.1 to 2
COC(=O)c1ccc(NC2CCc3cc(S(=O)(=O)NCC(C)C)c4cc(C5CC5)ncc4c32)cn1 (stereo not shown) [Example 18, methyl 5-[[3-cyclopropyl-5-(2-methylpropylsulfamoyl)-8,9-dihydro-7H-cyclopenta[h]isoquinolin-9-yl]amino]pyridine-2-carboxylate] | 0.01 to 0.05
CC(C)CNS(=O)(=O)c1cc2c(c3cnc(C4CC4)cc13)C(F)CC2 (stereo not shown) [Example 65, 3-cyclopropyl-9-fluoro-N-(2-methylpropyl)-8,9-dihydro-7H-cyclopenta[h]isoquinoline-5-sulfonamide] | 0.1 to 2
CC(C)CNS(=O)(=O)c1cc2c(c3cnc(C4CC4)cc13)C(O)CC2 (stereo not shown) [Example 62, 3-cyclopropyl-9-hydroxy-N-(2-methylpropyl)-8,9-dihydro-7H-cyclopenta[h]isoquinoline-5-sulfonamide] | 0.1 to 2
CC(C)CNS(=O)(=O)c1cc2c(c3nnc(C4CC4)cc13)CCC2 [Example 22, 3-cyclopropyl-N-(2-methylpropyl)-8,9-dihydro-7H-cyclopenta[h]cinnoline-5-sulfonamide] | 0.05 to 0.1
CCNC(=S)NC1CCc2c1cc(S(=O)(=O)NCC(C)C)c1cc(C3CC3)ncc21 (stereo not shown) [Example 51, 1-[3-cyclopropyl-5-(2-methylpropylsulfamoyl)-8,9-dihydro-7H-cyclopenta[h]isoquinolin-7-yl]-3-ethylthiourea] | 0.1 to 2
COc1cncc(NC2CCc3cc(S(=O)(=O)NCC(C)(C)F)c4cc(C5CC5)ncc4c32)c1 (stereo not shown) [Example 30, 3-cyclopropyl-N-(2-fluoro-2-methylpropyl)-9-[(5-methoxypyridin-3-yl)amino]-8,9-dihydro-7H-cyclopenta[h]isoquinoline-5-sulfonamide] | 0.01 to 0.05
CC(C)(F)CNS(=O)(=O)c1cc2c(c3cnc(C4CC4)cc13)CCC2Oc1cccnc1 (stereo not shown) [Example 94, 3-cyclopropyl-N-(2-fluoro-2-methylpropyl)-7-pyridin-3-yloxy-8,9-dihydro-7H-cyclopenta[h]isoquinoline-5-sulfonamide] | 0.1 to 2
CC(C)(F)CNS(=O)(=O)c1cc2c(c3cnc(C4CC4)cc13)CC[C@H]2Nc1nccn1CC1CC1 (single isomer, unassigned) [Example 13, (7R*)-3-cyclopropyl-7-[[1-(cyclopropylmethyl)imidazol-2-yl]amino]-N-(2-fluoro-2-methylpropyl)-8,9-dihydro-7H-cyclopenta[h]isoquinoline-5-sulfonamide] | 0.1 to 2
CNC(=O)[C@H]1CCCN1[C@@H]1CCc2c1cc(S(=O)(=O)NCC(C)(C)F)c1cc(C3CC3)ncc21 (relative stereo) [Example 58, (2R)-1-[(7R*)-3-cyclopropyl-5-[(2-fluoro-2-methylpropyl)sulfamoyl]-8,9-dihydro-7H-cyclopenta[h]isoquinolin-7-yl]-N-methylpyrrolidine-2-carboxamide] | 0.1 to 2
CC(C)(F)CNS(=O)(=O)c1cc2c(c3cnc(C4CC4)cc13)CCC2c1cccnc1F (stereo not shown) [Example 11, 3-cyclopropyl-N-(2-fluoro-2-methylpropyl)-7-(2-fluoropyridin-3-yl)-8,9-dihydro-7H-cyclopenta[h]isoquinoline-5-sulfonamide] | 0.1 to 2
CC(C)CNS(=O)(=O)c1cc2c(c3cnc(C4CC4)cc13)C(NC(=O)OCc1ccccc1)CC2 (stereo not shown) [Example 44, benzyl N-[3-cyclopropyl-5-(2-methylpropylsulfamoyl)-8,9-dihydro-7H-cyclopenta[h]isoquinolin-9-yl]carbamate] | 0.1 to 2
CC(C)(F)CNS(=O)(=O)c1cc2c(c3cnc(C4CC4)cc13)CCC2Nc1cccnc1 (stereo not shown) [Example 31, 3-cyclopropyl-N-(2-fluoro-2-methylpropyl)-7-(pyridin-3-ylamino)-8,9-dihydro-7H-cyclopenta[h]isoquinoline-5-sulfonamide] | 0.01 to 0.05
CCNC1=NS(=O)(=O)N=C1NC1CCc2cc(S(=O)(=O)NCC(C)C)c3cc(C4CC4)ncc3c21 (stereo not shown) [Example 66, 3-cyclopropyl-9-[[4-(ethylamino)-1,1-dioxo-1,2,5-thiadiazol-3-yl]amino]-N-(2-methylpropyl)-8,9-dihydro-7H-cyclopenta[h]isoquinoline-5-sulfonamide] | 0.1 to 2
CC(C)CNS(=O)(=O)c1cc2c(c3cnc(C4CC4)cc13)CCC2n1cnnc1Nc1cccnc1 (stereo not shown) [Example 91, 3-cyclopropyl-N-(2-methylpropyl)-7-[3-(pyridin-3-ylamino)-1,2,4-triazol-4-yl]-8,9-dihydro-7H-cyclopenta[h]isoquinoline-5-sulfonamide] | 0.01 to 0.05
CC(C)CNS(=O)(=O)c1cc2c(c3cnc(C4CC4)cc13)CCC2Nc1nc2ccccc2[nH]1 (stereo not shown) [Example 92, 7-(1H-benzimidazol-2-ylamino)-3-cyclopropyl-N-(2-methylpropyl)-8,9-dihydro-7H-cyclopenta[h]isoquinoline-5-sulfonamide] | 0.01 to 0.05
Cn1ncc2c(NC3CCc4cc(S(=O)(=O)NCC(C)(C)F)c5cc(C6CC6)ncc5c43)cncc21 (stereo not shown) [Example 43, 3-cyclopropyl-N-(2-fluoro-2-methylpropyl)-9-[(1-methylpyrazolo[3,4-c]pyridin-4-yl)amino]-8,9-dihydro-7H-cyclopenta[h]isoquinoline-5-sulfonamide] | 0.1 to 2
